Consider four molecules from ChEMBL document CHEMBL1201862, “PubChem BioAssay data set” (2004).

Molecules are shown by their SMILES.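 Step 1: Grow cells in 96-well plates. Step 2: Expose to compound for 48 hours at 5 concentrations. Step 3: Interpolate endpoints linearly; if unreached, use highest concentration. GI50 marks 50% less growth.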 Active and inactive are the calls of the source. Cut-off read from the data, not from the text of the source: active = GI50 up to about 1.1 µM and inactive = higher.

Test systems include A549; ACHN; COLO 205; DMS-273; HCC 2998; HOP-62; HT-29; IGROV-1; K562; KM12; M19-MEL; OVCAR-3; OVCAR-5; RXF 393; SF-268; SF-539; SW-620; TK-10; UACC-257.
What all share (experiment): NCI tumour cell line growth inhibition, 48 h

With `CN(C)CCNC(=O)c1cc2ccccc2c2nc3ccccc3nc12`, the GI50 was 0.977 µM (active) in the assay with A549; 0.407 µM (active) with ACHN; 0.828 µM (active) in the assay with COLO 205; 0.448 µM (active) in the assay with DMS-273; 1.1 µM (active) in the assay with HCC 2998; 2.39 µM (inactive) in the assay with HOP-62. Also, the GI50 with HT-29 is 0.536 µM (active); in the assay on IGROV-1, 1.45 µM (inactive); with K562 it was 0.363 µM (active); with KM12 it was 0.804 µM (active); with M19-MEL, 1.01 µM (active); in the assay on OVCAR-3, 2.1 µM (inactive). In addition, the GI50 in the assay with OVCAR-5 was 1.94 µM (inactive); in the assay with RXF 393 it was 1.02 µM (active); in the assay on SF-268, 0.0617 µM (active); in the assay on SF-539, 0.845 µM (active); in the assay on SW-620 it was 0.484 µM (active); in the assay on TK-10, 1.23 µM (inactive). Besides, the GI50 in the assay with UACC-257 is 1.45 µM (inactive).
For `C[N+](C)(C)CC(=O)NC(=O)N/N=C\C(CC#N)CN(Cc1ccccc1)Cc1ccccc1` (stereo unspecified), the GI50 was > 100 µM (inactive) in the assay on A549; > 100 µM (inactive) in the assay with ACHN; > 100 µM (inactive) in the assay with COLO 205; > 100 µM (inactive) in the assay on DMS-273; 66.4 µM (inactive) in the assay with HCC 2998; > 100 µM (inactive) in the assay on HOP-62. The GI50 in the assay on HT-29, in the assay with IGROV-1, with K562, in the assay on KM12, with M19-MEL and in the assay on OVCAR-3 was > 100 µM (inactive) each time. The GI50 in the assay with OVCAR-5, in the assay on RXF 393, with SF-268, in the assay on SF-539, in the assay on SW-620 and with TK-10 was > 100 µM (inactive) in each case. Further, the GI50 in the assay with UACC-257 is > 100 µM (inactive).
For `Nc1ccccc1C(=O)/C=C/c1c(O)ccc2ccccc12`, the GI50 in the assay with A549, in the assay on ACHN, in the assay with COLO 205, in the assay with DMS-273, in the assay on HCC 2998 and with HOP-62 was > 100 µM (inactive) throughout. Also, the GI50 in the assay on HT-29 was > 100 µM (inactive); with IGROV-1, > 100 µM (inactive); in the assay on K562, > 100 µM (inactive); in the assay with KM12, > 100 µM (inactive); in the assay with M19-MEL, 19.4 µM (inactive); in the assay on OVCAR-3, > 100 µM (inactive). Moreover, the GI50 with OVCAR-5, in the assay on RXF 393, in the assay on SF-268, in the assay on SF-539, in the assay with SW-620 and in the assay with TK-10 was > 100 µM (inactive) each time. For the same molecule, the GI50 with UACC-257 was > 100 µM (inactive).
On to `Cc1cc(O)nc(CNC(=O)c2ccc3ccccc3c2)n1`, for which the GI50 in the assay with A549, with ACHN, in the assay on COLO 205, in the assay with DMS-273, in the assay on HCC 2998 and in the assay with HOP-62 was > 100 µM (inactive) throughout. Besides, the GI50 in the assay with HT-29, with IGROV-1, in the assay with K562, with KM12, in the assay on M19-MEL and with OVCAR-3 was > 100 µM (inactive) in each case. The GI50 with OVCAR-5, with RXF 393, in the assay on SF-268, in the assay on SF-539, with SW-620 and in the assay with TK-10 was > 100 µM (inactive) in each case. Moreover, in the assay on UACC-257, the GI50 was > 100 µM (inactive).
